Assays:
[1] = test system: rat pituitary GH3 cells; experiment: TH-induced proliferation of GH3 cells, hemocytometer cell count; format: cell-based; details: 10 nM T3, all three sera, relative to vehicle controls
Procedure: FIG. 5 is evidence that serum from other species is suitable for use in thyroid hormone induction experiments with mammalian cells. 3.5×10^4 rat pituitary GH3 cells were plated in duplicate at a density of 2×10^4 cells/cm^2 and cultured in the presence of medium containing either 10% charcoal stripped fetal calf serum (stripped), serum from salmon parr (salmon), or Rana catesbeiana tadpoles (RTS). After 2 days, 10 nM T3 or vehicle control was added and the cells were counted 5 days later after trypsinization on a hemocytometer. The total cell numbers are indicated with vehicle control (white bars) and T3-exposed (black bars) cells in accordance with an embodiment.
Two frog cell lines, XTC-2 cells (Machuca and Tata 1992) and XLA cells (Kanamori and Brown 1993) were obtained from J. Tata and D. Brown, respectively and grown in 70% Liebovitz medium supplemented with 10% bovine growth serum, 100 µg/ml gentamycin sulfate and 10 mM Hepes, pH 7.5 (GIBCO/Invitrogen, Grand Island, N.Y.). These cells were grown at 25° C. in air. The rat pituitary tumor GH3 cell line was obtained from R. T. Zoeller and maintained in Kaighn's modification of Ham's F 12 medium with 2 mM glutamine, 1.5 g/L sodium bicarbonate, 10% fetal bovine serum, 1,000 U/ml penicillin, and 1 mg/ml streptomycin at 37° C. in 5% CO2. […]

[2] = test system: TH receptor β (TRβ) gene expression; experiment: TRβ transcript levels by RT-QPCR in XLA cells cultured in serum-containing medium; format: cell-based, Xenopus laevis; details: 10 nM T3, 2 days, relative to uninduced control
Procedure: The indicated cell types were plated at a density of 2×10^4 cells/cm^2 and cultured in the presence of medium containing either 10% charcoal stripped fetal calf serum (stripped) or Rana tadpole serum (RTS). […] All values were normalized to an invariant L8 ribosomal protein transcript. A) Relative expression levels of the control cells. B) Fold change of the TRβ transcript levels relative to the control, uninduced cells in accordance with an embodiment. […] The expression of TRβ and GH gene transcripts was analyzed using a MX4000 real-time quantitative polymerase chain reaction system (Stratagene, La Jolla, Calif., USA) as described previously (Crump, Werry et al. 2002) using gene specific primers (for TRβ: UP primer 5'-[NT]; DOWN primer 5'-[NT]; for GH: UP primer 5'-[NT]; DOWN primer 5'-[NT] The annealing temperature was 55° C. A standard curve for each primer pair was generated using the appropriate quantified plasmid DNA containing the target gene sequence. Quadruplicate reactions were performed for each sample and data were averaged and normalized to the expression of the control gene encoding the ribosomal protein L8. […] Total RNA was isolated from these cells and analyzed for the levels of the TRβ gene by reverse transcription quantitative real time polymerase chain reaction (RT-QPCR). […]

[3] = test system: growth hormone (GH) mRNA transcript; experiment: GH transcript levels by RT-QPCR in GH3 cells cultured in serum-containing medium; format: cell-based, rat; details: 10 nM T3, 2 days, relative to uninduced control
Procedure: The indicated cell types were plated at a density of 2×10^4 cells/cm^2 and cultured in the presence of medium containing either 10% charcoal stripped fetal calf serum (stripped) or Rana tadpole serum (RTS). […] All values were normalized to an invariant L8 ribosomal protein transcript. A) Relative expression levels of the control cells. B) Fold change of the GH transcript levels relative to the control, uninduced cells in accordance with an embodiment. […] The expression of TRβ and GH gene transcripts was analyzed using a MX4000 real-time quantitative polymerase chain reaction system (Stratagene, La Jolla, Calif., USA) as described previously (Crump, Werry et al. 2002) using gene specific primers (for TRβ: UP primer 5'-[NT]; DOWN primer 5'-[NT]; for GH: UP primer 5'-[NT]; DOWN primer 5'-[NT] The annealing temperature was 55° C. A standard curve for each primer pair was generated using the appropriate quantified plasmid DNA containing the target gene sequence. Quadruplicate reactions were performed for each sample and data were averaged and normalized to the expression of the control gene encoding the ribosomal protein L8.

[4] = test system: TH receptor β (TRβ) gene expression; experiment: TRβ transcript levels by RT-QPCR in XTC-2 cells cultured in serum-containing medium; format: cell-based, Xenopus laevis
Procedure: The indicated cell types were plated at a density of 2×10^4 cells/cm^2 and cultured in the presence of medium containing either 10% charcoal stripped fetal calf serum (stripped) or Rana tadpole serum (RTS). […] All values were normalized to an invariant L8 ribosomal protein transcript. A) Relative expression levels of the control cells. B) Fold change of the TRβ transcript levels relative to the control, uninduced cells in accordance with an embodiment. […] XTC cells were plated in triplicate at a density of 2×10^4 cells/cm^2 and cultured in the presence of medium containing either 10% charcoal stripped fetal calf serum (CS) or Rana tadpole serum from different premetamorphic (VI, XII) or prometamorphic (XV, XVIII) stages (Taylor and Kollros, 1946). […] All values were normalized to an invariant L8 ribosomal protein transcript. The relative expression levels are indicated with vehicle control (white bars) and T3-exposed (black bars) cells in accordance with an embodiment. FIG. 3 is evidence that serum from other species is suitable for use in thyroid hormone induction experiments. XTC cells were plated at a density of 2×10^4 cells/cm^2 and cultured in the presence of medium containing either 10% charcoal stripped fetal calf serum (stripped), serum from salmon Parr (salmon), or neotenic salamanders (salamander). […] All values were normalized to an invariant L8 ribosomal protein transcript. […]

## N[C@@H](Cc1cc(I)c(Oc2ccc(O)c(I)c2)c(I)c1)C(=O)O [T3, 3,5,3′-triiodothyronine]
[1]
  GH3 proliferation on exposure to T3: increased proliferation
[2]
  TRβ mRNA levels on exposure to T3: increase
[3]
  GH mRNA levels on exposure to T3: increase
[4]; XTC cells, 10 nM T3, in charcoal stripped serum or RTS of stages VI, XII, XV, XVIII (all cases)
  TRβ levels after addition of T3: robust elevation
[4]; XTC-2 cells, 10 nM T3, 2 days, relative to uninduced control
  TRβ mRNA levels on exposure to T3: increase
